# Read-outs that look alike come from different tables or passages of the source.
# System: MCF-7 human breast cancer cells
# Test: cells
# [1] = MCF7, 72 h, MCF-7, Figure 2, 72 h
# [2] = MCF7, read-out: Antiproliferative Activity IC50, MCF-7, eight concentrations 0.001–50 μM, mean ± SEM, Table 3
# [3] = MCF7, read-out: Antiproliferative Activity IC50, MCF-7, eight concentrations 0.001–50 μM, mean ± SEM, Table 4
# [4] = MCF7, read-out: Antiproliferative Activity IC50
# [5] = MCF7, 72 h, read-out: Antiproliferative Activity IC50, MCF-7, 72 h, eight concentrations (0.001–50 mM [sic]), mean ± SEM, Table 5
# Description: All biochemical assays were performed in triplicate for the determination of mean values reported. The human breast carcinoma cell line MCF-7 was purchased from the European Collection of Animal Cell Cultures (ECACC) and was cultured in Eagle’s minimum essential medium with 10% fetal bovine serum, 2 mM L-glutamine and 100 μg/mL penicillin/streptomycin. The medium was supplemented with 1% non-essential amino acids. […] All cells were sub-cultured 3 times/week by trypsinisation.
# Cells were seeded at a density of 5 × 10^3 cells/well (MCF-7) in triplicate in 96-well plates. […] Cell proliferation for MCF-7 and MDA-MB-231 cells was analysed using the Alamar Blue assay (Invitrogen Corp.). […] Experiments were performed in triplicate on at least three separate occasions.
smiles,measurement,setting,value
"C=C(C)C1C(=O)N(c2cc(OC)c(OC)c(OC)c2)C1c1cccc2ccccc12 (stereo not shown) [9m, 4-Naphthalen-1-yl-1-(3,4,5-trimethoxyphenyl)-3-(prop-1-en-2-yl)azetidin-2-one]",IC50,[1],8.07 µM
same,IC50,"MCF7, 72 h, read-out: Antiproliferative Activity IC50, MCF-7, 72 h, eight concentrations 1–50 μM, mean ± SEM, Table 2",44.1 ± 2.57 µM
"C=C(C)C1C(=O)N(c2cc(OC)c(OC)c(OC)c2)C1c1ccc(OC)c([N+](=O)[O-])c1 (stereo not shown) [9r, 4-(4-Methoxy-3-nitrophenyl)-1-(3,4,5-trimethoxyphenyl)-3-(prop-1-en-2-yl)azetidin-2-one]",IC50,MCF7,0.01 to 0.033 µM
"C=CCC1C(=O)N(c2cc(OC)c(OC)c(OC)c2)C1c1ccc([N+](=O)[O-])cc1 (stereo not shown) [10a, 3-Allyl-4-(4-nitrophenyl)-1-(3,4,5-trimethoxyphenyl)azetidin-2-one]",IC50,[2],4.13 ± 0.62 µM
"C=CCC1C(=O)N(c2cc(OC)c(OC)c(OC)c2)C1c1ccc(Cl)cc1 (stereo not shown) [10b, 3-Allyl-4-(4-chlorophenyl)-1-(3,4,5-trimethoxyphenyl)azetidin-2-one]",IC50,[2],0.621 ± 0.095 µM
"C=CCC1C(=O)N(c2cc(OC)c(OC)c(OC)c2)C1c1ccc(Br)cc1 (stereo not shown) [10c, 3-Allyl-4-(4-bromophenyl)-1-(3,4,5-trimethoxyphenyl)azetidin-2-one]",IC50,[2],0.944 ± 0.1 µM
"C=CCC1C(=O)N(c2cc(OC)c(OC)c(OC)c2)C1c1ccc(N(C)C)cc1 (stereo not shown) [10e, 3-Allyl-4-(4-dimethylaminophenyl)-1-(3,4,5-trimethoxyphenyl)azetidin-2-one]",IC50,[2],4.46 ± 0.11 µM
"C=CCC1C(=O)N(c2cc(OC)c(OC)c(OC)c2)C1c1ccccc1 (stereo not shown) [10f, 3-Allyl-4-phenyl-1-(3,4,5-trimethoxyphenyl)azetidin-2-one]",IC50,[2],9.61 ± 1.2 µM
"C=CCC1C(=O)N(c2cc(OC)c(OC)c(OC)c2)C1c1ccc(OCC)cc1 (stereo not shown) [10i, 3-Allyl-4-(4-ethoxyphenyl)-1-(3,4,5-trimethoxyphenyl)azetidin-2-one]",IC50,[2],0.091 ± 0.01 µM
"C=CCC1C(=O)N(c2cc(OC)c(OC)c(OC)c2)C1c1ccc(OCCCC)cc1 (stereo not shown) [10j, 3-Allyl-4-(4-butoxyphenyl)-1-(3,4,5-trimethoxyphenyl)azetidin-2-one]",IC50,[2],17.4 ± 1.23 µM
"C=CCC1C(=O)N(c2cc(OC)c(OC)c(OC)c2)C1c1ccc(Oc2ccccc2)cc1 (stereo not shown) [10k, 3-Allyl-4-(4-phenoxyphenyl)-1-(3,4,5-trimethoxyphenyl)azetidin-2-one]",IC50,[2],7.49 ± 0.6 µM
"C=CCC1C(=O)N(c2cc(OC)c(OC)c(OC)c2)C1c1ccc2ccccc2c1 (stereo not shown) [10n, 3-Allyl-4-naphthalen-2-yl-1-(3,4,5-trimethoxyphenyl)azetidin-2-one]",IC50,[2],0.318 ± 0.03 µM
"C=CCC1C(=O)N(c2ccccc2)C1c1ccc(OC)cc1 (stereo not shown) [10s, 3-Allyl-4-(4-Methoxyphenyl)-1-phenylazetidin-2-one]",IC50,[2],84.5 ± 8.1 µM
"C=C/C=C/C1C(=O)N(c2cc(OC)c(OC)c(OC)c2)C1c1ccc(N(C)C)cc1 (stereo not shown) [11e, (E)-3-(Buta-1,3-dien-1-yl)-4-(4-dimethylaminophenyl)-1-(3,4,5-trimethoxyphenyl)azetidin-2-one]",IC50,[3],1.93 ± 0.34 µM
"C=C/C=C/C1C(=O)N(c2cc(OC)c(OC)c(OC)c2)C1c1ccc(OCCCC)cc1 (stereo not shown) [11j, (E)-3-(Buta-1,3-dien-1-yl)-4-(4-butoxyphenyl)-1-(3,4,5-trimethoxyphenyl)-azetidin-2-one]",IC50,[3],182 ± 19.4 µM
"C=C/C=C/C1C(=O)N(c2cc(OC)c(OC)c(OC)c2)C1c1ccc(OCc2ccccc2)cc1 (stereo not shown) [11l, (E)-3-(Buta-1,3-dien-1-yl)-4-(4-benzyloxyphenyl)-1-(3,4,5-trimethoxyphenyl)azetidin-2-one]",IC50,[3],145 ± 11.7 µM
"C=C/C=C/C1C(=O)N(c2cc(OC)c(OC)c(OC)c2)C1c1ccc2ccccc2c1 (stereo not shown) [11n, (E)-3-(Buta-1,3-dien-1-yl)-4-(naphthalen-2-yl)-1-(3,4,5-trimethoxyphenyl)azetidin-2-one]",IC50,[3],0.296 ± 0.05 µM
"C=C/C=C/C1C(=O)N(c2ccccc2)C1c1ccc(OC)cc1 (stereo not shown) [11s, (E)-3-(Buta-1,3-dien-1-yl)-4-(4-methoxyphenyl)-1-phenylazetidin-2-one]",IC50,[3],15.2 ± 1.41 µM
"C=C(C)C1C(=O)N(c2cc(OC)c(OC)c(OC)c2)C1c1ccc(OC)c(NC(=O)C(N)Cc2ccccc2)c1 (stereo not shown) [13a, 2-Amino-N-(2-methoxy-5-(1-(3,4,5-trimethoxyphenyl)-4-oxo-3-(prop-1-en-2-yl)azetidin-2-yl)phenyl)-3-phenylpropanamide]",IC50,[1],4.92 µM
"C=CCC1C(=O)N(c2cc(OC)c(OC)c(OC)c2)C1c1ccc(OC)c(NC(=O)C(N)Cc2ccccc2)c1 (stereo not shown) [13b, N-(5-(3-Allyl-1-(3,4,5-trimethoxyphenyl)-4-oxoazetidin-2-yl)-2-methoxyphenyl)-2-amino-3-phenylpropanamide]",IC50,[2],10.7 ± 1.94 µM
"C=CCC1C(=O)N(c2cc(OC)c(OC)c(OC)c2)C1c1ccc(OC)c(NC(=O)C(N)C(C)C)c1 (stereo not shown) [13c, N-(5-(3-Allyl-1-(3,4,5-trimethoxyphenyl)-4-oxoazetidin-2-yl)-2-methoxyphenyl)-2-amino-3-methylbutanamide]",IC50,[2],13 ± 1.25 µM
"C=C/C=C/C1C(=O)N(c2cc(OC)c(OC)c(OC)c2)C1c1ccc(OC)c(NC(=O)C(N)C(C)C)c1 (stereo not shown) [13d, 2-Amino-N-(5-(3-((E)-buta-1,3-dienyl)-1-(3,4,5-trimethoxyphenyl)-4-oxoazetidin-2-yl)-2-methoxyphenyl)-3-methylbutanamide]",IC50,[3],24.2 ± 3.91 µM
"C=CC=CC1C(=O)N(c2cc(OC)c(OC)c(OC)c2)C1c1ccc(OC)c(NC(=O)CN)c1 (stereo not shown) [13e, 2-Amino-N-(5-(3-(buta-1,3-dienyl)-1-(3,4,5-trimethoxyphenyl)-4-oxoazetidin-2-yl)-2-methoxyphenyl)acetamide]",IC50,[3],9.36 ± 1.21 µM
"C=CCC1C(=O)N(c2cc(OC)c(OC)c(OC)c2)C1c1ccc(OC)c(OP(=O)(O)O)c1 (stereo not shown) [15c, 5-(3-Allyl-1-(3,4,5-trimethoxyphenyl)-4-oxoazetidin-2-yl)-2-methoxyphenyl dihydrogen phosphate]",IC50,[4],0.094 ± 0.015 µM
"CCCC1C(=O)N(c2cc(OC)c(OC)c(OC)c2)C1c1ccc(OC)c(OP(=O)(O)O)c1 (stereo not shown) [15d, 2-Methoxy-5-(1-(3,4,5-trimethoxyphenyl)-4-oxo-3-propylazetidin-2-yl)phenyl dihydrogen phosphate]",IC50,[4],0.032 ± 0.005 µM
"COc1ccc(C2C(CC=Cc3ccccc3)C(=O)N2c2cc(OC)c(OC)c(OC)c2)cc1O (stereo not shown) [17b, 3-Cinnamyl-4-(3-hydroxy-4-methoxyphenyl)-1-(3,4,5-trimethoxyphenyl)azetidin-2-one]",IC50,[5],1.09 ± 0.08 µM
"O=C1C(CC=Cc2ccccc2)C(c2ccccc2)N1c1ccccc1 (stereo not shown) [17c, 3-Cinnamyl-1,4-diphenylazetidin-2-one]",IC50,[5],75.4 ± 8.12 µM
"COc1ccc(C2C(CC=Cc3ccc(C(F)(F)F)cc3)C(=O)N2c2cc(OC)c(OC)c(OC)c2)cc1 (stereo not shown) [17d, 3-(4-(Trifluoromethyl)cinnamyl)-4-(4-methoxyphenyl)-1-(3,4,5-trimethoxyphenyl) azetidin-2-one]",IC50,[5],49.5 ± 5.23 µM
"COc1ccc(C2C(CC=Cc3ccc(C(F)(F)F)cc3)C(=O)N2c2ccccc2)cc1 (stereo not shown) [17e, 3-(4-(Trifluoromethyl)cinnamyl)-4-(4-methoxyphenyl)-1-phenylazetidin-2-one]",IC50,[5],4.76 ± 0.56 µM
"CCOC(=O)CC1C(=O)N(c2cc(OC)c(OC)c(OC)c2)C1c1ccc(OC)c(O)c1 (stereo not shown) [17g, Ethyl-2-(2-(3-hydroxy-4-methoxyphenyl)-1-(3,4,5-trimethoxyphenyl)-4-oxoazetidin-3-yl)acetate]",IC50,[5],0.075 ± 0.01 µM
"COc1ccc(C2C(C=Cc3ccc(C(F)(F)F)cc3)C(=O)N2c2cc(OC)c(OC)c(OC)c2)cc1 (stereo not shown) [compound 19, 3-(4-(Trifluoromethyl)styryl)-1-(3,4,5-trimethoxyphenyl)-4-(4-methoxyphenyl)azetidin-2-one]",IC50,[5],7.71 ± 0.78 µM

# From publication PMC10385824, “Antiproliferative and Tubulin-Destabilising Effects of 3-(Prop-1-en-2-yl)azetidin-2-Ones and Related Compounds in MCF-7 and MDA-MB-231 Breast Cancer Cells” (Pharmaceuticals, 2023)
